Measurements reported in US20230057602A1, “METHODS OF TREATMENT WITH ANTIBODIES AGAINST BCMA AND CD3” (BRISTOL-MYERS SQUIBB COMPANY, priority 2019, published 2023).

Tests used:
[1] = system: Relapsed/Refractory Multiple Myeloma (RRMM) patients; experiment: Clinical study of CC-93269 in RRMM: efficacy (IMWG response, MRD); format: in vivo, human
Procedure: This study involved 19 RRMM patients who had received ≥3 prior regimens without prior BCMA-directed therapy. Prior treatments included autologous stem cell transplantation, allogenic stem cell transplantation, lenalidomide, pomalidomide, bortezomib, carfilzomib, and daratumumab (DARA). All patients had MM refractory to their last line of therapy.
CC-93269 (42-TCBcv), a bispecific antibody that specifically binds to BCMA bivalently and CD3 monovalently, was administered intravenously over 2 hours on Days 1, 8, 15, and 22 for Cycles 1-3; Days 1 and 15 for Cycles 4-6; and on Day 1 for Cycle 7 and beyond, all in 28-day cycles. 14 patients received a fixed dose of CC-93269 at each of the intervals: 0.15 mg (Cohort 1, n=1), 0.5 mg (Cohort 2, n=1), 1.5 mg (Cohort 3, n=1), 3 mg (Cohort 4, n=4), 6 mg (Cohort 5, n=3) or 10 mg (Cohort 6, n=4). 5 patients received a starting dose of 6 mg on Cycle 1 Day 1, followed by a dose of 10 mg on Cycle 1 Day 8 and thereafter (Cohort 7, n=5).
Response was assessed using the International Myeloma Working Group (IMWG) Uniform Response Criteria (Rajkumar, 2011a; Kumar, 2016) at every cycle starting on Cycle 2 Day 1 and at the end of treatment. Minimal residual disease (MRD) was assessed by EuroFlow evaluation and NGS (next-generation sequencing) if evaluable. MRD negativity was reported only if a minimum sensitivity of <1 tumour cell in 10^5 nucleated cells was achieved. […]

[2] = Subcutaneous versus intravenous bioavailability (data not shown); format: in vivo
Procedure: In some embodiments of any aspect of the invention, the multispecific (e.g. bispecific) antibody is administered intravenously or subcutaneously.

[3] = system: KMS12-PE BCMA-expressing myeloma cell line; experiment: CC-93269-induced redirected lysis of KMS12-PE; format: cell-based, human; conditions: E:T 1:1, 72 hours, 3 donors
Procedure: Four BCMA-expressing tumour cell lines purchased from ATCC (Manassa, Va.) (Multiple Myeloma cell lines: BCMA high-H-929 (catalog number CRL-9068), BCMA mid-SKMM2 and -MM.1S (catalog number ACC-430) and BCMA low-KMS12-PE (catalog number ACC-606)) were co-cultured with T-cells from 3 independent healthy donors (Bloodworks Northwest, Seattle, Wash.), at a E:T ratio of 1:1, i.e. 1 T cell: 1 myeloma cell. […]; 0.033-2.6 nM) for 72 hours.
FIG. 7 illustrates CC-93269-induced redirected lysis of BCMA+ tumour cell lines following co-culture with donor T cells from one healthy donor; results from all 3 independent healthy donors are summarised in Table 19. In 96-well round bottom plates and a final volume of 100 μL, 1×10^4 CellTrace Violet-labeled T-cells were plated with 1×10^4 CellTrace CFSE-labeled target cells, in the presence of varying concentrations of CC-93269 in combination with varying concentrations of dexamethasone (7-point dose response). The cocultures were incubated at 37° C. with 5% CO2. […] One-hundred percent viability was determined by the absolute cell count of live tumour cells at no addition of CC-93269 or dexamethasone; an absolute cell count of 0 live cells was used to define 100% killing of tumour cells. […] The IC50 values were calculated using non-linear regression analysis, sigmoidal dose-response using GraphPad Prism (version 5.0) software.

[4] = 12 patients treated with ≥6 mg (Cohort 5 to 7)
[5] = Patients Treated with <6 mg (n = 7)
[6] = Patients Treated with up to 10 mg (n = 9)
[7] = Patients Treated with ≥6 mg (n = 12)
[8] = Patients treated with up to 3 mg (n = 7)
[9] = Patients treated with up to 6 mg (n = 14)
[10] = patients treated with ≥6 mg (Cohort 5 to 7)

CC-93269: bispecific antibody that specifically binds to BCMA bivalently and CD3 monovalently; SEQ ID NO:48, 55, 56, 57 (2×)
responses ([1]; 4 patients of Cohort 4, consecutive doses of 3 mg): No responses were observed | preliminary overall response rate ([1]; 9 subjects, maintenance dose of 10 mg (Cohorts 6 and 7)): 88.9% | MRD negativity [1, 4]: 75.0% | overall response rate (partial response or better) [1, 4]: 83.3% | stringent complete response (sCR) [1, 4]: 33.3% | very good partial response (VGPR) or better [1, 4]: 58.3% | Best response: Minimal response (MR) ([1]; All Patients (N =19)): 0 (0) n (%) | Best response: Not evaluable ([1]; All Patients (N =19)): 2 (10.5) n (%) | Best response: Partial response (PR) ([1]; All Patients (N =19)): 3 (15.8) n (%) | Best response: Progressive disease (PD) ([1]; All Patients (N =19)): 3 (15.8) n (%) | Best response: Stringent complete response + complete response (sCR + CR) ([1]; All Patients (N =19)): 4 (21.1) n (%) | Best response: Very good partial response (VGPR) ([1]; All Patients (N =19)): 3 (15.8) n (%) | VGPR or better ([1]; All Patients (N =19)): 7 (36.8) n (%) | Overall response (PR or better) ([1]; All Patients (N =19), Cohorts 1-7): 10 (52.6) n (%) | response compared with Cohorts 1 to 4 (maintenance dose ≤3 mg) ([1]; Cohorts 8 and 9, starting dose 3 mg then maintenance dose ≥6 mg): improved response | Best response: Minimal response (MR) [1, 5]: 0 (0) n (%) | Best response: Not evaluable [1, 5]: 1 (14.3) n (%) | Best response: Partial response (PR) [1, 5]: 0 (0) n (%) | Best response: Progressive disease (PD) [1, 5]: 2 (28.6) n (%) | Best response: Stringent complete response + complete response (sCR + CR) [1, 5]: 0 (0) n (%) | Best response: Very good partial response (VGPR) [1, 5]: 0 (0) n (%) | VGPR or better [1, 5]: 0 (0) n (%) | Overall response (PR or better) ([1]; Patients Treated with <6 mg (n = 7), Cohorts 1-7): 0 (0) n (%) | Best response: Minimal response (MR) [1, 6]: 0 n (%) | Best response: Not evaluable [1, 6]: 1 (11.1) n (%) | Best response: Partial response (PR) [1, 6]: 1 (11.1) n (%) | Best response: Progressive disease (PD) [1, 6]: 0 n (%) | Best response: Stringent complete response + complete response (sCR + CR) [1, 6]: 4 (44.4) n (%) | Best response: Very good partial response (VGPR) [1, 6]: 3 (33.3) n (%) | Overall response (PR or better) ([1]; Patients Treated with up to 10 mg (n = 9), Cohorts 1-9): 8 (88.9) n (%) | Best response: Minimal response (MR) [1, 7]: 0 (0) n (%) | Best response: Not evaluable [1, 7]: 1 (8.3) n (%) | Best response: Partial response (PR) [1, 7]: 3 (25.0) n (%) | Best response: Progressive disease (PD) [1, 7]: 1 (8.3) n (%) | Best response: Stringent complete response + complete response (sCR + CR) [1, 7]: 4 (33.3) n (%) | Best response: Very good partial response (VGPR) [1, 7]: 3 (25.0) n (%) | MRD negative [1, 7]: 9 (75.0) n (%) | VGPR or better [1, 7]: 7 (58.3) n (%) | Overall response (PR or better) ([1]; Patients Treated with ≥6 mg (n = 12), Cohorts 1-7): 10 (83.3) n (%) | Best response: Minimal response (MR) [1, 8]: 0 (0) n (%) | Best response: Not evaluable [1, 8]: 1 (14.3) n (%) | Best response: Partial response (PR) [1, 8]: 0 (0) n (%) | Best response: Progressive disease (PD) [1, 8]: 2 (28.6) n (%) | Best response: Stringent complete response + complete response (sCR + CR) [1, 8]: 0 (0) n (%) | Best response: Very good partial response (VGPR) [1, 8]: 0 (0) n (%) | Overall response (PR or better) ([1]; Patients treated with up to 3 mg (n = 7), Cohorts 1-9): 0 (0) n (%) | Best response: Minimal response (MR) [1, 9]: 0 (0) n (%) | Best response: Not evaluable [1, 9]: 3 (21.4) n (%) | Best response: Partial response (PR) [1, 9]: 3 (21.4) n (%) | Best response: Progressive disease (PD) [1, 9]: 5 (35.7) n (%) | Best response: Stringent complete response + complete response (sCR + CR) [1, 9]: 1 (7.1) n (%) | Best response: Very good partial response (VGPR) [1, 9]: 1 (7.1) n (%) | Overall response (PR or better) ([1]; Patients treated with up to 6 mg (n = 14), Cohorts 1-9): 5 (35.7) n (%) | preliminary overall response rate ([1]; patients treated with up to 6 mg (Cohorts 5, 8, and 9)): 35.7% | median time to response [1, 10]: 4.2 weeks | time to response, range [1, 10]: 4.0-13.1 weeks | bioavailability of subcutaneous administration [2]: comparable bioavailability to intravenous administration | % live tumour cells, Mean ([3]; 1 μM Dex co-treatment): 5.8% | % live tumour cells, Mean ([3]; DMSO): 3.71%
